One data set concerns the target T1, AhR (Homo sapiens, UniProt P35869).
T1 construct: One of the resultant clones was named HEK-XRE 11.1, and used in the reporter gene assays; endogenous in cells; host or cells: HEK-XRE 11.1 (HEK cells stably carrying the AhR-responsive luciferase reporter X4-4.27 and phRL-CMV)
T1 sequence (P35869 11-848): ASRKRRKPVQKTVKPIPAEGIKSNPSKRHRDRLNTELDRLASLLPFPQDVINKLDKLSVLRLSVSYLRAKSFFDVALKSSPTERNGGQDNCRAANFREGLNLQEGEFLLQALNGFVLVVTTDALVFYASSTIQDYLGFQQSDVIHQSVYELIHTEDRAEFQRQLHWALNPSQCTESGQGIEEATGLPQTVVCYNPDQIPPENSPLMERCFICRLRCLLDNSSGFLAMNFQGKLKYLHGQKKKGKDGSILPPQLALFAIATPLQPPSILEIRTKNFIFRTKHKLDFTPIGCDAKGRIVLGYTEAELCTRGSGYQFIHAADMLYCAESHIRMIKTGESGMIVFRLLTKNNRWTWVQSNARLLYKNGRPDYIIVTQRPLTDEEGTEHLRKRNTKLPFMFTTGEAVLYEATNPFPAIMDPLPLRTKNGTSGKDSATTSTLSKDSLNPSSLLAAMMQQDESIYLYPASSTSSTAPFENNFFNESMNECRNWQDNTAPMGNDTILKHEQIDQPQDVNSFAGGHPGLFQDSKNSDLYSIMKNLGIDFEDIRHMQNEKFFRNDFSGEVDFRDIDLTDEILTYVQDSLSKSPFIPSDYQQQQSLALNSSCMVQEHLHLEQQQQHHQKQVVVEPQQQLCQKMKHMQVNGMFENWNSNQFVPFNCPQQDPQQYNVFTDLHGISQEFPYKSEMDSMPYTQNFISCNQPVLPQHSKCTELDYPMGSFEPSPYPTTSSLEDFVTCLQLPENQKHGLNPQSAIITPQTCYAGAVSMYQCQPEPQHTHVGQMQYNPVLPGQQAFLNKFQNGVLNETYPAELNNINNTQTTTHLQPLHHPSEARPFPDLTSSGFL
In words: Inhibition of AhR-mediated gene transcription (HEK-XRE 11.1 luciferase reporter, MeBIO induction). As to conditions: HEK-XRE 11.1 cells, MeBIO 0.1 nM, luminescence after 24 hours; Table 1. Type of data set: cell-based. Put shortly:
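HEK-XRE 11.1 cells, stably carrying an AhR-responsive firefly luciferase reporter, were stimulated with 0.1 nM MeBIO and given compounds in 8-point 1:3 serial dilutions from 10 mM (stock-range figure) in duplicate. Luminescence was read after 24 h culture without Renilla normalisation. Dose-response curves were fitted by nonlinear regression.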
In general terms: A reporter such as luciferase makes a cellular process visible.

Data set [1] concerns Human CD34+ cord blood (CB) cells. In words: CD34+ activity assessment (7-day expansion of pre-expanded CD34+ cells, flow cytometry). The conditions noted are these: concentration at which compound/vehicle ratio of CD34+ cell number is >= 1.5; 7 days, with 35 nM UM0128171; Table 1. Type of data set: cell-based. (In flow cytometry, cells or beads pass a laser one at a time.)

IC50 and EC1.5 data for 24 compounds are collected here from patent US11696928B2, “Compounds and use thereof in the expansion of stem cells and/or progenitor cells” (UNIVERSITE DE MONTREAL, priority 2017, dated 2023).

As a reminder, the IC50 is the concentration at which inhibition is half-maximal. Low values mean greater potency in that assay, high ones weaker potency in that assay.

On to `Cc1nc2cc(NC(=O)c3sc4ncc(C(F)(F)F)cc4c3N)ccc2s1` [Compound 1101], for which, on AhR, the IC50 was less than 50 nM. The EC1.5 in data set [1] lay within 100 to 1000 nM.

For `Nc1c(C(=O)Nc2ccncn2)sc2ncc(C(F)(F)F)cc12` [Compound 1102], the IC50 at AhR lay within 50 to 500 nM. Further, the EC1.5 in data set [1] is given as greater than 5000 nM.

Take `Nc1c(C(=O)Nc2ccccc2)sc2nc3c(cc12)CCCC3` [Compound 1104]: at AhR, the IC50 is 50 to 500 nM. Further, the EC1.5 in data set [1] is 100 to 1000 nM.

Regarding `COc1ccc(NC(=O)c2sc3nc4c(cc3c2N)CCCC4)cc1` [Compound 1105], the IC50 against AhR was 50 to 500 nM. In addition, in data set [1], the EC1.5 is on record as greater than 5000 nM.

In turn, `Nc1c(C(=O)Nc2ccc(F)cc2)sc2nc3c(cc12)CCCC3` [Compound 1106] showed an IC50 against AhR of 50 to 500 nM. Further, in data set [1], the EC1.5 was 1000 to 5000 nM.

Regarding `Nc1c(C(=O)Nc2ncccn2)sc2ncc(C(F)(F)F)cc12` [Compound 1107], the IC50 against AhR is less than 50 nM. In data set [1], the EC1.5 lay in the range of 1000 to 5000 nM.

For `Nc1c(C(=O)Nc2cncnc2)sc2ncc(C(F)(F)F)cc12` [Compound 1109], on AhR, the IC50 is greater than 500 nM. Besides, the EC1.5 in data set [1] was greater than 5000 nM.

Compound `Nc1c(C(=O)Nc2ccc3[nH]ncc3c2)sc2ncc(C(F)(F)F)cc12` [Compound 1110] returned an IC50 at AhR of 50 to 500 nM. For the same compound, the EC1.5 in data set [1] is given as greater than 5000 nM.

On to `Nc1c(C(=O)Nc2ccccc2)sc2nc3c(cc12)CCCCC3` [Compound 1113], for which the IC50 against AhR is 50 to 500 nM. The EC1.5 in data set [1] was 1000 to 5000 nM.

`Cc1cnc2sc(C(=O)Nc3ccc(F)cc3)c(N)c2c1` [Compound 1115]: the IC50 against AhR is less than 50 nM. Also, the EC1.5 in data set [1] was less than 100 nM.

On to `COc1ccc(NC(=O)c2sc3ccc(C(F)(F)F)nc3c2N)cc1` [Compound 1116], for which the IC50 against AhR is 50 to 500 nM. The EC1.5 in data set [1] was 100 to 1000 nM.

On AhR, `Nc1c(C(=O)Nc2ccc(F)cc2)sc2ccc(C(F)(F)F)nc12` [Compound 1117] registered an IC50 of less than 50 nM. In data set [1], the EC1.5 lay within 100 to 1000 nM.

For `COc1ccc(NC(=O)c2sc3ccc(C)cc3c2N)cc1` [Compound 1119], at AhR, the IC50 is 50 to 500 nM. Further, the EC1.5 in data set [1] lay in the range of 100 to 1000 nM.

Take `Cc1ccc2sc(C(=O)Nc3ccc(F)cc3)c(N)c2c1` [Compound 1120]: the IC50 against AhR is less than 50 nM. Besides, in data set [1], the EC1.5 was less than 100 nM.

Compound `COc1cc(NC(=O)c2sc3ncc(C(F)(F)F)cc3c2N)ccc1F` [Compound 1121] gave an IC50 at AhR of 50 to 500 nM. The EC1.5 in data set [1] lay within 100 to 1000 nM.

`CCOc1ccc(NC(=O)c2sc3ncc(C(F)(F)F)cc3c2N)cc1` [Compound 1122]: the IC50 on AhR is less than 50 nM. In addition, the EC1.5 in data set [1] is given as less than 100 nM.

Turning to `NC(=O)c1ccc(NC(=O)c2sc3ncc(C(F)(F)F)cc3c2N)cc1` [Compound 1123], the IC50 on AhR lay within 50 to 500 nM. The EC1.5 in data set [1] is recorded as greater than 5000 nM.

As for `CNC(=O)c1ccc(NC(=O)c2sc3ncc(C(F)(F)F)cc3c2N)cc1` [Compound 1124], the IC50 against AhR is 50 to 500 nM. For the same compound, the EC1.5 in data set [1] lay in the range of 100 to 1000 nM.

On to `COC(=O)c1ccc(NC(=O)c2sc3ncc(C(F)(F)F)cc3c2N)cc1` [Compound 1125], for which the IC50 against AhR is 50 to 500 nM. In addition, in data set [1], the EC1.5 fell in the range of 100 to 1000 nM.

Compound `CN(C)c1ccc(NC(=O)c2sc3ncc(C(F)(F)F)cc3c2N)cc1` [Compound 1126] yielded an IC50 against AhR of 50 to 500 nM. For the same compound, in data set [1], the EC1.5 is 1000 to 5000 nM.

On to `Nc1c(C(=O)Nc2ccc(S(N)(=O)=O)cc2)sc2ncc(C(F)(F)F)cc12` [Compound 1127], for which the IC50 against AhR is 50 to 500 nM. Further, the EC1.5 in data set [1] is listed as greater than 5000 nM.

Consider `COc1ccc(NC(=O)c2sc3ccc(C)nc3c2N)cc1` [Compound 1129], for which the IC50 against AhR was in the range of 50 to 500 nM. Besides, the EC1.5 in data set [1] was in the range of 100 to 1000 nM.

At AhR, `Cc1ccc2sc(C(=O)Nc3ccc(Cl)cc3)c(N)c2c1` [Compound 1130] registered an IC50 of 50 to 500 nM. Further, the EC1.5 in data set [1] was greater than 5000 nM.

On AhR, `Cc1ccc(NC(=O)c2sc3ccc(C)cc3c2N)cc1` [Compound 1131] displayed an IC50 of 50 to 500 nM. The EC1.5 in data set [1] was greater than 5000 nM.
